Measured values reported in PubChem BioAssay AID256 (DTP/NCI, 2004).
Where “and” joins values, the source holds several entries; their conditions need not be identical. Equal entries are not always repeated. Toxic doses and inconclusive results are not listed. Rule for the calls: active = survival T/C of 150% or more; inactive = T/C below 125% in these data.

Test system: CD2F1 mice, L1210 leukemia ip, survival T/C
Assay: NCI In Vivo Anticancer Drug Screen. Data for tumor model L1210 Leukemia (intraperitoneal) in CD2F1 (CDF1) mice
Conditions: endpoint: mean survival time, higher = longer survival
Summary of the method: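 Transplantable tumor in mice; compound-treated vs vehicle-treated groups. Read-out = treated/control ratio of the measured endpoint.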

[1] = dose: 100.0 mg/kg/injection, schedule: Q01DX009 (ip), vehicle: saline with Tween-80
[2] = dose: 100.0 mg/kg/injection, schedule: Q04DX003 (ip), vehicle: saline with Tween-80
[3] = dose: 200.0 mg/kg/injection, schedule: Q01DX009 (ip), vehicle: saline with Tween-80
[4] = dose: 400.0 mg/kg/injection, schedule: Q04DX003 (ip), vehicle: saline with Tween-80
[5] = dose: 100.0 mg/kg/injection, schedule: Q01DX001 (ip), vehicle: saline
[6] = dose: 200.0 mg/kg/injection, schedule: Q01DX001 (ip), vehicle: saline
[7] = dose: 400.0 mg/kg/injection, schedule: Q01DX001 (ip), vehicle: saline
[8] = dose: 200.0 mg/kg/injection, schedule: Q04DX003 (ip), vehicle: saline with Tween-80
[9] = dose: 100.0 mg/kg/injection, schedule: Q04DX003 (ip), vehicle: Klucel (hydroxypropylcellulose) (HPC)
[10] = dose: 50.0 mg/kg/injection, schedule: Q01DX009 (ip), vehicle: saline

Measured: T/C

COc1cc([N+](=O)[O-])ccc1NC(=O)Nc1ccc(Cl)cc1
inactive: [1] 89 % of control | [2] 91 % of control | [3] 87 % of control | [4] 107 % of control

CC(=O)OCCC/C(=C/c1c[nH]c2ccccc12)[N+](=O)[O-]
inactive: [5] 97 % of control | [6] 102 % of control | [7] 109 % of control

O=C(O)CCC(C(=O)O)c1ccccc1 (stereo unspecified)
inactive: dose: 75.0 mg/kg/injection, schedule: Q01DX001 (ip), vehicle: saline 98 % of control | dose: 150.0 mg/kg/injection, schedule: Q01DX001 (ip), vehicle: saline 101 % of control | dose: 300.0 mg/kg/injection, schedule: Q01DX001 (ip), vehicle: saline 104 % of control

Cc1ccc(CC(=O)O)cc1C
inactive: [2] 98 % of control | [8] 95 % of control | [4] 98 % of control

CCOC(=O)C1=C(C)NC(C)=C(C(=O)OCC)C1C
inactive: dose: 50.0 mg/kg/injection, schedule: Q04DX003 (ip), vehicle: saline with Tween-80 98 % of control and 100 % of control | [2] 101 % of control and 103 % of control and 108 % of control | [8] 95 % of control and 98 % of control and 104 % of control | [4] 122 % of control

NC(=S)N/N=C/c1ccccc1O
inactive: [1] 102 % of control | [3] 91 % of control | dose: 400.0 mg/kg/injection, schedule: Q01DX009 (ip), vehicle: saline with Tween-80 88 % of control

N#CCc1ccc(N=Nc2c(N)nc(N)nc2N)cc1
inactive: [2] 92 % of control | [8] 104 % of control | [4] 101 % of control

CC(=O)OCCN(CCOC(C)=O)CCOC(C)=O
inactive: [9] 95 % of control

O=C(O)c1c(Cl)c(Cl)c(Cl)c(Cl)c1Cl
inactive: [2] 98 % of control | [8] 98 % of control | [4] 98 % of control

Cn1c(CC(O)c2nc3ccccc3n2C)nc2ccccc21 (stereo unspecified)
inactive: dose: 50.0 mg/kg/injection, schedule: Q01DX009 (ip), vehicle: Klucel (hydroxypropylcellulose) (HPC) 97 % of control | dose: 100.0 mg/kg/injection, schedule: Q01DX009 (ip), vehicle: Klucel (hydroxypropylcellulose) (HPC) 101 % of control | dose: 200.0 mg/kg/injection, schedule: Q01DX009 (ip), vehicle: Klucel (hydroxypropylcellulose) (HPC) 120 % of control

Oc1ccccc1NC(=S)Nc1ccccc1
inactive: [5] 102 % of control | [6] 98 % of control | [7] 100 % of control

CO/N=C/c1ccc([N+](=O)[O-])s1
inactive: [10] 116 % of control

CCOC(=O)CNC(=O)c1ccc(N(CCCl)CCCl)cc1
inactive: [9] 95 % of control | dose: 200.0 mg/kg/injection, schedule: Q04DX003 (ip), vehicle: Klucel (hydroxypropylcellulose) (HPC) 96 % of control | dose: 400.0 mg/kg/injection, schedule: Q04DX003 (ip), vehicle: Klucel (hydroxypropylcellulose) (HPC) 104 % of control

CCCCC(CCC)(CCN)CCCC
inactive: dose: 3.0 mg/kg/injection, schedule: Q01DX009 (ip), vehicle: saline 106 % of control | dose: 6.0 mg/kg/injection, schedule: Q01DX009 (ip), vehicle: saline 98 % of control | dose: 12.0 mg/kg/injection, schedule: Q01DX009 (ip), vehicle: saline 104 % of control | dose: 12.5 mg/kg/injection, schedule: Q04DX003 (ip), vehicle: saline 103 % of control

O=[N+]([O-])c1ccc(/C=C/C=C/c2ccccc2)cc1
inactive: [2] 101 % of control | [8] 98 % of control | [4] 95 % of control

O=[N+]([O-])c1cccc(C=Nc2ccc3c(c2)C(Br)c2ccccc2-3)c1 (stereo unspecified)
inactive: [2] 97 % of control | [8] 90 % of control

COc1ccc(CC2=NCCc3cc(OC)c(OC)cc32)cc1OC
inactive: dose: 25.0 mg/kg/injection, schedule: Q01DX009 (ip), vehicle: saline 95 % of control | dose: 25.0 mg/kg/injection, schedule: Q04DX003 (ip), vehicle: saline 110 % of control | [10] 101 % of control | dose: 50.0 mg/kg/injection, schedule: Q04DX003 (ip), vehicle: saline 104 % of control | dose: 100.0 mg/kg/injection, schedule: Q04DX003 (ip), vehicle: saline 96 % of control and 103 % of control
